The results in this text go back to US20180362543A1, “HIV REPLICATION INHIBITOR” (Shionogi & Co., Ltd., priority 2013, published 2018).

Broadly, the EC50 is the concentration needed to bring the measured effect to its halfway point. Low values mean a more potent agent, high ones a less potent agent.

For one assay, the system named is HIV (HTLV-III B strain). The assay can be described thus: HIV replication inhibition assay (MTT, MT-4 cells). It counts as cell-based. The following applies: Human immunodeficiency virus 1, MT4, 96 h, Table A-7, four days. Summed up:
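MT-4 cells (2.5×10^4/well) infected with HTLV-III B stock (60 pfu) in presence of compound, cultured four days at 37 °C. Viability by MTT reduction, formazan read at 560 and 690 nm. EC50 is concentration inhibiting virus-induced cytotoxicity by 50%.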
For `Cc1ccc(-c2c(C)c3c(c(C)c2[C@H](OC(C)(C)C)C(=O)O)N(S(C)(=O)=O)Cc2cccc(F)c2-3)s1` [Compound 334], the half-maximal effective concentration (EC50) was determined as 22 nM.

On to `Cc1ccc(-c2c(C)c3c(c(C)c2[C@H](OC(C)(C)C)C(=O)O)N(C(N)=O)Cc2c(F)ccc(F)c2-3)cc1` [Compound 335], for which it took 30 nM to reach a half-maximal effect (EC50).

As for `Cc1c(-c2ccc3c(c2)OCCO3)c([C@H](OC(C)(C)C)C(=O)O)c(C)c2c1-c1c(F)cccc1CN2S(C)(=O)=O` [Compound 336], a half-maximal effect (EC50) was put at 22 nM. On the same count and under the same terms, the figure for `Cc1c(-c2c(C)c3c(c(C)c2[C@H](OC(C)(C)C)C(=O)O)N(S(C)(=O)=O)[C@@H](C)c2cccnc2-3)ccc2c1NCCO2` [Compound 337] is 26 nM; for `Cc1c(-c2ccc3c(c2)NCCC3)c([C@H](OC(C)(C)C)C(=O)O)c(C)c2c1-c1c(F)cccc1CN2S(C)(=O)=O` [Compound 340] it is 4.3 nM. Same read-out and setting: next, `CC(=O)N1Cc2cccc(F)c2-c2c(C)c(-c3ccc4c(c3C)NCCO4)c([C@H](OC(C)(C)C)C(=O)O)c(C)c21` [Compound 342]: 9 nM.

The compound `Cc1cc(C)c(-c2c(C)c3c(c(C)c2[C@H](OC(C)(C)C)C(=O)O)N(S(C)(=O)=O)Cc2cccc(F)c2-3)s1` [Compound 343] yielded an EC50 of 16 nM. Consider `Cc1c(-c2c(C)c3c(c(C)c2[C@H](OC(C)(C)C)C(=O)O)N(C)Cc2cc(F)cc(F)c2-3)ccc2c1NCCO2` [Compound 344], for which a half-maximal effect (EC50) was put at 47 nM. The compound `Cc1ccc2c(c1)-c1c(C)c(-c3ccc4c(c3C)NCCO4)c([C@H](OC(C)(C)C)C(=O)O)c(C)c1N(S(C)(=O)=O)C2` [Compound 345] came in with an EC50 of 6.8 nM. The same measure, in the same setting: next, `Cc1cccc2c1CN(S(C)(=O)=O)c1c(C)c([C@H](OC(C)(C)C)C(=O)O)c(-c3ccc4c(c3C)NCCO4)c(C)c1-2` [Compound 346]: 4.8 nM.

Turning to `Cc1cccc2c1-c1c(C)c(-c3ccc4c(c3C)NCCO4)c([C@H](OC(C)(C)C)C(=O)O)c(C)c1N(S(C)(=O)=O)C2` [Compound 347], it took 22 nM to reach a half-maximal effect (EC50).

`Cc1ccc2c(c1)CN(S(C)(=O)=O)c1c(C)c([C@H](OC(C)(C)C)C(=O)O)c(-c3ccc4c(c3C)NCCO4)c(C)c1-2` [Compound 348] gave a half-maximal effective concentration (EC50) of 2 nM.

`Cc1c(-c2c(C)c3c(c(C)c2[C@H](OC(C)(C)C)C(=O)O)N(S(C)(=O)=O)Cc2cccc(F)c2-3)ccc2c1NC(=O)CO2` [Compound 350]: the EC50 was 96 nM. Against the preceding compound, the EC50 is about 48-fold higher. The same measure, in the same setting: next, `CCC(C)(C)O[C@H](C(=O)O)c1c(C)c2c(c(C)c1-c1ccc3c(c1C)NCCO3)-c1c(F)cccc1CN2S(C)(=O)=O` [Compound 351]: 4.5 nM; `Cc1ccc(-c2c(C)c3c(c(C)c2[C@H](OC(C)(C)C)C(=O)O)N(S(C)(=O)=O)Cc2cccc(F)c2-3)cc1N` [Compound 352]: 10 nM. On to `Cc1c(-c2c(C)c3c(c(C)c2[C@H](OC(C)(C)C)C(=O)O)N(C(N)=O)Cc2c(F)ccc(F)c2-3)ccc2c1NCCO2` [Compound 358], for which the EC50 is 91 nM. As to `Cc1c(-c2c(C)c3c(c(C)c2[C@H](OC(C)(C)C)C(=O)O)N(S(C)(=O)=O)Cc2cccc(F)c2-3)ccc2c1NCCC2` [Compound 359], the EC50 is 5.4 nM. Compound `Cc1c(-c2c(C)c3c(c(C)c2[C@H](OC(C)(C)C)C(=O)O)N(S(C)(=O)=O)Cc2cccc(F)c2-3)ccc2c1OCCO2` [Compound 360] yielded an EC50 of 4.4 nM.

Staying with this assay, now noted: Human immunodeficiency virus 1, MT4, 96 h, Table A-8 (continuation of Tables A-1 to A-9), four days.
`Cc1c(-c2ccc3c(c2)NCC3)c([C@H](OC(C)(C)C)C(=O)O)c(C)c2c1-c1c(F)cccc1CN2S(C)(=O)=O` [Compound 363] had an EC50 of 14 nM.

The compound `Cc1c(-c2ccc(Cl)c3[nH]ccc23)c([C@H](OC(C)(C)C)C(=O)O)c(C)c2c1-c1c(F)cccc1CN2S(C)(=O)=O` [Compound 364] gave an EC50 of 16 nM.

`Cc1c(-c2c(C)c3c(c(C)c2[C@H](OC(C)(C)C)C(=O)O)N(S(C)(=O)=O)Cc2cccc(F)c2-3)ccc(Br)c1N` [Compound 367] displayed an EC50 of 7.6 nM. Same read-out and setting: next, `COc1cnc2c(c1)CN(S(C)(=O)=O)c1c(C)c([C@H](OC(C)(C)C)C(=O)O)c(-c3ccc(C)cc3)c(C)c1-2` [Compound 368]: 3.9 nM; `Cc1c(-c2ccc(Cl)cc2)c([C@H](OC(C)(C)C)C(=O)O)c(C)c2c1-c1ncccc1CN2S(C)(=O)=O` [Compound 369]: 44 nM; `COc1ccc2c(n1)CN(S(C)(=O)=O)c1c(C)c([C@H](OC(C)(C)C)C(=O)O)c(-c3ccc(C)cc3)c(C)c1-2` [Compound 371]: 4.6 nM. On the same count and under the same terms, the figure for `Cc1c(-c2c(C)c3c(c(C)c2[C@H](OC(C)(C)C)C(=O)O)N(S(C)(=O)=O)Cc2cccc(F)c2-3)ccc(Cl)c1O` [Compound 372] is 81 nM. Compound `COc1ccnc2c1CN(S(C)(=O)=O)c1c(C)c([C@H](OC(C)(C)C)C(=O)O)c(-c3ccc(C)cc3)c(C)c1-2` [Compound 374] showed a concentration for a half-maximal effect (EC50) of 63 nM. Same read-out and setting: the figure for `Cc1ccc(-c2c(C)c3c(c(C)c2[C@H](OC2(C)CCC2)C(=O)O)N(S(C)(=O)=O)Cc2cccc(F)c2-3)cc1` [Compound 375] is 19 nM. The same measure, in the same setting: the figure for `Cc1c(-c2ccc(Cl)cc2)c([C@H](OC2(C)CCC2)C(=O)O)c(C)c2c1-c1c(F)cccc1CN2S(C)(=O)=O` [Compound 378] is 36 nM; for `COc1cc2c(cn1)-c1c(C)c(-c3ccc(Cl)cc3)c([C@H](OC(C)(C)C)C(=O)O)c(C)c1N(S(C)(=O)=O)C2` [Compound 379] it is 2.3 nM; for `Cc1ccc2c(n1)CN(S(C)(=O)=O)c1c(C)c([C@H](OC(C)(C)C)C(=O)O)c(-c3ccc(Cl)cc3)c(C)c1-2` [Compound 380] it is 13 nM. `Cc1ccc(-c2c(C)c3c(c(C)c2[C@H](OC(C)(C)C)C(=O)O)N(S(C)(=O)=O)Cc2cccc(F)c2-3)c(O)c1` [Compound 381] yielded an EC50 of 5 nM. Still for that read-out and setting: the figure for `Cc1ccc(-c2c(C)c3c(c(C)c2[C@H](OC(C)(C)C)C(=O)O)N(S(C)(=O)=O)Cc2cc(C)cnc2-3)c(O)c1` [Compound 382] is 49 nM.

Consider `Cc1ccc(-c2c(C)c3c(c(C)c2[C@H](OC(C)(C)C)C(=O)O)N(S(C)(=O)=O)Cc2cc(C)cnc2-3)c(C)c1` [Compound 384], for which the EC50 was determined as 8.4 nM. This EC50 lies about 5.8-fold lower than the previous one. On the same count and under the same terms, next, `Cc1ccc(-c2c(C)c3c(c(C)c2[C@H](OC(C)(C)C)C(=O)O)N(S(C)(=O)=O)Cc2cnc(C(F)(F)F)cc2-3)cc1` [Compound 385]: 39 nM; `Cc1ccc(-c2c(C)c3c(c(C)c2[C@H](OC(C)(C)C)C(=O)O)N(S(C)(=O)=O)Cc2ccc(N)nc2-3)cc1` [Compound 386]: 86 nM; `Cc1ccc(-c2c(C)c3c(c(C)c2[C@H](OC(C)(C)C)C(=O)O)N(S(C)(=O)=O)Cc2nc(C)cc(C)c2-3)cc1` [Compound 388]: 29 nM.

In turn, `COc1nc2c(cc1F)CN(S(C)(=O)=O)c1c(C)c([C@H](OC(C)(C)C)C(=O)O)c(-c3ccc(C)cc3)c(C)c1-2` [Compound 389] had an EC50 of 67 nM.

On to `Cc1ccc(-c2c(C)c3c(c(C)c2[C@H](OC(C)(C)C)C(=O)O)N(S(C)(=O)=O)Cc2cc(N(C)C)cnc2-3)cc1` [Compound 390], for which the EC50 is 2.2 nM. The same measure, in the same setting: the figure for `Cc1ccc(-c2c(C)c3c(c(C)c2[C@H](OC(C)(C)C)C(=O)O)N(S(C)(=O)=O)Cc2cc(C(F)(F)F)cnc2-3)cc1` [Compound 391] is 4.1 nM; for `Cc1ccc(-c2c(C)c3c(c(C)c2[C@H](OC(C)(C)C)C(=O)O)N(S(C)(=O)=O)Cc2c(C)ccnc2-3)cc1` [Compound 392] it is 31 nM. Same read-out and setting: next, `COc1cc2c(cn1)-c1c(C)c(-c3ccc(C)cc3C)c([C@H](OC(C)(C)C)C(=O)O)c(C)c1N(S(C)(=O)=O)C2` [Compound 393]: 4.7 nM. Still for that read-out and setting: the figure for `Cc1ccc(-c2c(C)c3c(c(C)c2[C@H](OC(C)(C)C)C(=O)O)N(S(C)(=O)=O)Cc2cccc(F)c2-3)c(CO)c1` [Compound 394] is 27 nM; for `Cc1ccc(-c2c(C)c3c(c(C)c2[C@H](OC(C)(C)C)C(=O)O)N(S(C)(=O)=O)Cc2ccc4c(c2-3)OCCO4)cc1` [Compound 395] it is 34 nM; for `Cc1ccc(-c2c(C)c3c(c(C)c2[C@H](OC(C)(C)C)C(=O)O)N(S(C)(=O)=O)Cc2ccc(C(F)(F)F)nc2-3)cc1` [Compound 397] it is 33 nM. Consider `Cc1ccc(-c2c(C)c3c(c(C)c2[C@H](OC(C)(C)C)C(=O)O)N(S(C)(=O)=O)Cc2cc(F)c(N(C)C)nc2-3)cc1` [Compound 398], for which the EC50 turned out to be 80 nM.

The assay is the same for the next values; noted with them: Human immunodeficiency virus 1, MT4, 96 h, Table A-9, four days.
With `Cc1ccc(-c2c(C)c3c(c(C)c2[C@H](OC(C)(C)C)C(=O)O)N(S(C)(=O)=O)Cc2c(F)ncc(F)c2-3)cc1` [Compound 403], a half-maximal response (EC50) required 14.6 nM. The compound `Cc1cnc2c(c1)CN(S(C)(=O)=O)c1c(C)c([C@H](OC(C)(C)C)C(=O)O)c(C3=CCC(C)(C)CC3)c(C)c1-2` [Compound 404] had a concentration giving a half-maximal response (EC50) of under 7.8 nM. The same measure, in the same setting: next, `Cc1cnc2c(c1)CN(S(C)(=O)=O)c1c(C)c([C@H](OC(C)(C)C)C(=O)O)c(-c3ccc(Cl)cc3O)c(C)c1-2` [Compound 406]: 38 nM; `Cc1ccc(-c2c(C)c3c(c(C)c2[C@H](OC(C)(C)C)C(=O)O)N(S(C)(=O)=O)Cc2cc(Cl)cnc2-3)cc1` [Compound 407]: under 7.8 nM.
